In experiment [1] the test system is Trypanosoma brucei. Briefly: Trypanocidal activity against Trypanosoma brucei 427 blood stream forms after 64 hrs by Alamar blue assay. The conditions noted are these: Trypanosoma brucei, 427, 64 h. Type of experiment: functional. (In general: The colour change of resazurin is a common sign of viable cells or microbes.)
Another experiment concerns Leishmania major. Briefly: Antileishmanial activity against Leishmania major MHOM/IL/80/Friedlin promastigotes after 72 hrs by Alamar blue assay. Type of experiment: functional.
Experiment [2] relates to HeLa. Briefly: Cytotoxicity against human HeLa cells after 64 hrs by Alamar blue assay. Format: cell-based.
Experiment [3] has as its system Trypanosoma brucei. Briefly: Trypanocidal activity against Trypanosoma brucei 427 procyclic forms after 64 hrs by Alamar blue assay. Type of experiment: functional. The conditions noted are these: Trypanosoma brucei, 427, 64 h.
A further experiment deals with Trypanosoma cruzi. Put plainly: Trypanocidal activity against Trypanosoma cruzi strain CL Brener epimastogoes after 64 hrs by Alamar blue assay. Format: functional.
In a further experiment the test system is Vero. Briefly: Cytotoxicity against African green monkey Vero cells after 72 hrs by Alamar blue assay. Type of experiment: cell-based. The settings on record: Chlorocebus sabaeus.
Experiment [4] relates to HeLa. Briefly: Cytotoxicity against human HeLa cells. Type of experiment: cell-based.
In experiment [5] the test system is Trypanosoma brucei. Put plainly: Trypanocidal activity against Trypanosoma brucei blood stream forms. Type of experiment: functional.

By EC50 is commonly meant the concentration that produces a half-maximal response. As to `Cn1cccc1C(=O)NCCCCCCOCCCC[C@H]1CCC[C@@H](Cn2cc([C@@H]3CCC[C@H](CCCCOCc4ccccc4)O3)nn2)O1`, the EC50 in the experiment with Trypanosoma brucei [1] was 4.6 µM; in the experiment with Leishmania major it was 16.3 µM; with HeLa [2], 177 µM; with Trypanosoma brucei [3], 5 µM; in the experiment with Trypanosoma cruzi it was above 500 µM.
The like results for `COCCCCCCNC(=O)c1ccco1` were, in that order, 113 µM, above 500 µM, above 500 µM, 124 µM and above 500 µM.
For `O=C(NCCCCCCOCCCC[C@H]1CCC[C@@H](Cn2cc([C@@H]3CCC[C@H](CCCCOCc4ccccc4)O3)nn2)O1)c1cocn1`, the EC50 in the experiment on Trypanosoma brucei [1] turned out to be 8.4 µM; in the experiment on Leishmania major, 21.6 µM; in the experiment with Vero it was 26.6 µM; in the experiment on HeLa [2], 21.9 µM; with Trypanosoma brucei [3] it was 9.9 µM; in the experiment on Trypanosoma cruzi, 18.3 µM.
Take `OCCCCCCOCCCC[C@H]1CCC[C@@H](Cn2cc([C@@H]3CCC[C@H](CCCCOCc4ccccc4)O3)nn2)O1`: the EC50 amounted to 3.5 µM in the experiment with Trypanosoma brucei [1]; 12.4 µM in the experiment with Leishmania major; 21.6 µM in the experiment on HeLa [2]; 3.8 µM in the experiment on Trypanosoma brucei [3]; 27.3 µM in the experiment on Trypanosoma cruzi.
Take `C[C@H]1C=C(CCCCCCCCCC[C@H]2CCC[C@@H](c3cn(C[C@@H]4CCC[C@H](CCCCOCc5ccccc5)O4)nn3)O2)C(=O)O1`: the EC50 in the experiment on HeLa [4] was found to be 2.1 µM; in the experiment with Trypanosoma brucei [5], 5.2 µM.
The like results for `CCCCCC[C@H]1CCC[C@@H](Cn2cc([C@@H]3CCC[C@H](CCCCO)O3)nn2)O1` were, in that order, 7 µM and 1.8 µM.
`O=C(NCCCCCCOCCCC[C@H]1CCC[C@@H](Cn2cc([C@@H]3CCC[C@H](CCCCOCc4ccccc4)O3)nn2)O1)c1ccsc1`: the EC50 in the experiment on Trypanosoma brucei [1] is 5.8 µM; with Leishmania major, 15.2 µM; in the experiment on Vero it was above 500 µM; in the experiment on HeLa [2] it was above 500 µM; with Trypanosoma brucei [3] it was 5 µM; in the experiment on Trypanosoma cruzi, above 500 µM.
Take `Cc1cc(C(=O)NCCCCCCOCCCC[C@H]2CCC[C@@H](Cn3cc([C@@H]4CCC[C@H](CCCCOCc5ccccc5)O4)nn3)O2)oc1C`: the EC50 is 4.6 µM with Trypanosoma brucei [1]; 72.3 µM in the experiment with Leishmania major; above 100 µM in the experiment on HeLa [2]; 3.9 µM in the experiment on Trypanosoma brucei [3]; 135 µM with Trypanosoma cruzi.
For `O=C(NCCCCCCOCCCC[C@H]1CCC[C@@H](Cn2cc([C@@H]3CCC[C@H](CCCCOCc4ccccc4)O3)nn2)O1)c1cccs1`, in that order: 5.1 µM, above 500 µM, above 500 µM, 4.8 µM and above 500 µM.
`NCCCCCCOCCCC[C@H]1CCC[C@@H](Cn2cc([C@@H]3CCC[C@H](CCCCOCc4ccccc4)O3)nn2)O1`: the EC50 was found to be 5.8 µM in the experiment with Trypanosoma brucei [1]; 19.2 µM in the experiment on Leishmania major; 8.1 µM in the experiment on HeLa [2]; 9.1 µM in the experiment with Trypanosoma brucei [3]; 16.7 µM in the experiment with Trypanosoma cruzi.
As for `Cn1nccc1C(=O)NCCCCCCOCCCC[C@H]1CCC[C@@H](Cn2cc([C@@H]3CCC[C@H](CCCCOCc4ccccc4)O3)nn2)O1`, the half-maximal effective concentration (EC50) in the experiment with Trypanosoma brucei [1] is 6.1 µM; in the experiment with Leishmania major it was 28.7 µM; with HeLa [2] it was above 100 µM; in the experiment with Trypanosoma brucei [3], 5.5 µM; in the experiment with Trypanosoma cruzi, 81.8 µM.
The like results for `COCCCCCCNC(=O)c1ccnn1C` were, in that order, 107 µM, above 500 µM, above 250 µM, 47.4 µM and above 500 µM.
As for `CCCCCC[C@H]1CCC[C@@H](Cn2cc([C@@H]3CCC[C@H](CCCCCCCCCCC4=C[C@H](C)OC4=O)O3)nn2)O1`, the EC50 is above 1000 µM in the experiment with HeLa [4] and above 500 µM in the experiment on Trypanosoma brucei [5].
`c1ccc(COCCCCCCOCCCC[C@H]2CCC[C@@H](Cn3cc([C@@H]4CCC[C@H](CCCCOCc5ccccc5)O4)nn3)O2)cc1`: the EC50 with Trypanosoma brucei [1] was 4.3 µM; in the experiment with Leishmania major it was 411 µM; with HeLa [2], above 20 µM; in the experiment with Trypanosoma brucei [3] it was 29 µM; in the experiment with Trypanosoma cruzi, above 500 µM.
The like results for `Cc1ccoc1C(=O)NCCCCCCOCCCC[C@H]1CCC[C@@H](Cn2cc([C@@H]3CCC[C@H](CCCCOCc4ccccc4)O3)nn2)O1` were, in that order, 4.7 µM, 67.8 µM, 112 µM, 2.5 µM and above 500 µM.
As to `COCCCCCCNC(=O)c1ccc([N+](=O)[O-])o1`, the EC50 came out at 0.73 µM in the experiment on Trypanosoma brucei [1]; 21 µM in the experiment with Leishmania major; 15.8 µM in the experiment on Vero; 4.1 µM in the experiment on HeLa [2]; 0.37 µM in the experiment with Trypanosoma brucei [3]; 8 µM in the experiment on Trypanosoma cruzi.
Regarding `O=C(NCCCCCCOCCCC[C@H]1CCC[C@@H](Cn2cc([C@@H]3CCC[C@H](CCCCOCc4ccccc4)O3)nn2)O1)c1ccc[nH]1`, the EC50 in the experiment with Trypanosoma brucei [1] is 5 µM; in the experiment with Leishmania major, above 500 µM; in the experiment on HeLa [2] it was above 100 µM; with Trypanosoma brucei [3], 4.6 µM; in the experiment on Trypanosoma cruzi it was above 500 µM.
Consider `O=C(NCCCCCCOCCCC[C@H]1CCC[C@@H](Cn2cc([C@@H]3CCC[C@H](CCCCOCc4ccccc4)O3)nn2)O1)c1ccc(Cl)o1`, for which the EC50 in the experiment with Trypanosoma brucei [1] is 4.5 µM; with Leishmania major, above 500 µM; in the experiment on HeLa [2], above 500 µM; in the experiment on Trypanosoma brucei [3], 3.8 µM; with Trypanosoma cruzi, above 500 µM.
Regarding `O=C(NCCCCCCOCCCC[C@H]1CCC[C@@H](Cn2cc([C@@H]3CCC[C@H](CCCCOCc4ccccc4)O3)nn2)O1)c1cscn1`, the EC50 is 5.7 µM with Trypanosoma brucei [1]; 21.8 µM in the experiment with Leishmania major; above 100 µM in the experiment on HeLa [2]; 5.8 µM with Trypanosoma brucei [3]; 12.6 µM in the experiment on Trypanosoma cruzi.
`O=C(NCCCCCCOCCCC[C@H]1CCC[C@@H](Cn2cc([C@@H]3CCC[C@H](CCCCOCc4ccccc4)O3)nn2)O1)c1ccccc1`: the EC50 in the experiment with Trypanosoma brucei [1] was 4.4 µM; in the experiment on Leishmania major, above 500 µM; with HeLa [2] it was above 250 µM; with Trypanosoma brucei [3] it was 4.3 µM; in the experiment with Trypanosoma cruzi it was above 500 µM.
As for `O=C(NCCCCCCOCCCC[C@H]1CCC[C@@H](Cn2cc([C@@H]3CCC[C@H](CCCCOCc4ccccc4)O3)nn2)O1)c1ccoc1`, the EC50 is 3.9 µM in the experiment with Trypanosoma brucei [1]; 15.2 µM with Leishmania major; above 500 µM in the experiment with Vero; above 500 µM in the experiment on HeLa [2]; 5.4 µM in the experiment on Trypanosoma brucei [3]; above 500 µM in the experiment on Trypanosoma cruzi.
With `O=C(NCCCCCCOCCCC[C@H]1CCC[C@@H](Cn2cc([C@@H]3CCC[C@H](CCCCOCc4ccccc4)O3)nn2)O1)c1ccco1`, the EC50 with Trypanosoma brucei [1] was 3.8 µM; in the experiment on Leishmania major it was 7.8 µM; with Vero it was above 500 µM; in the experiment on HeLa [2] it was above 500 µM; in the experiment with Trypanosoma brucei [3], 5 µM; in the experiment on Trypanosoma cruzi, 8 µM.
Consider `OCCCCCCOCCCC[C@H]1CCC[C@@H](Cn2cc([C@@H]3CCC[C@H](CCCCO)O3)nn2)O1`, for which the EC50 is 37.7 µM in the experiment with Trypanosoma brucei [1]; 123 µM in the experiment with Leishmania major; 6.5 to 69.3 µM in the experiment on HeLa [2]; 56.3 µM with Trypanosoma brucei [3]; 230 µM with Trypanosoma cruzi.
As to `Cc1nc(C(=O)NCCCCCCOCCCC[C@H]2CCC[C@@H](Cn3cc([C@@H]4CCC[C@H](CCCCOCc5ccccc5)O4)nn3)O2)co1`, the EC50 amounted to 8 µM in the experiment on Trypanosoma brucei [1]; 21.5 µM in the experiment with Leishmania major; 13.6 µM in the experiment on Vero; 19.9 µM in the experiment on HeLa [2]; 7.1 µM in the experiment on Trypanosoma brucei [3]; 12.1 µM in the experiment on Trypanosoma cruzi.
For the molecule `O=C(NCCCCCCOCCCC[C@H]1CCC[C@@H](Cn2cc([C@@H]3CCC[C@H](CCCCOCc4ccccc4)O3)nn2)O1)c1ccc([N+](=O)[O-])o1`, the EC50 in the experiment on Trypanosoma brucei [1] was determined as 0.037 µM; with Leishmania major, 11.2 µM; in the experiment on Vero it was 4.5 µM; in the experiment on HeLa [2], 0.38 µM; in the experiment on Trypanosoma brucei [3], 0.1 µM; in the experiment on Trypanosoma cruzi, 3.1 µM.
Consider `Cc1ccc(C(=O)NCCCCCCOCCCC[C@H]2CCC[C@@H](Cn3cc([C@@H]4CCC[C@H](CCCCOCc5ccccc5)O4)nn3)O2)o1`, for which the EC50 in the experiment with Trypanosoma brucei [1] was 4.7 to 4.9 µM; in the experiment with Leishmania major, 16.1 µM; in the experiment on HeLa [2], 42.7 µM; with Trypanosoma brucei [3], 3.1 µM; with Trypanosoma cruzi, 187 µM.
